| SMILES | melting point |
| --- | --- |
| CCn1cc(S(N)(=O)=O)nc1C | 179 to 181 °C |
| N#Cc1ccc(Cl)cc1NC1CCCC1 | 74 to 76 °C |
| C=CCn1c(S)nc2cc3ccccc3cc2c1=O | 285 to 287 °C |
| Cc1csc(C2(O)C(=O)N(Cc3ccccc3)CC2C(=O)O)n1 (stereo not given) | 109 to 111 °C |
| CS(=O)(=O)c1ccc(F)c(C(=O)O)c1 | 190 to 192 °C |
| CN(C)c1nc(-c2ccccc2)c(C=O)s1 | 123 to 125 °C |
| O=C(O)C1(c2cccc(Cl)c2)CCC1 | 101 to 103 °C |
| NC1=C(c2nc3ccccc3[nH]2)C(=O)CN1NC(=O)c1cccs1 | 270 to 272 °C |
| CC(Sc1ccnc2cc(Cl)ccc12)C(=O)O (stereo not given) | 201 to 203 °C |
| CC(C)(C)OC(=O)Nc1csc(Br)c1 | 84 to 86 °C |
| NNC(=O)CNc1cccc(C(F)(F)F)c1 | 80 to 82 °C |
| CS(=O)(=O)NC1CCNCC1 | 143 to 145 °C |
| Cc1ccc(N)cc1N1CCOC1=O | 130 to 132 °C |
| CC(C)(C)C(=O)Nc1nc(CC(=O)O)cs1 | 222 to 224 °C |
| O=C(O)c1ccc2c(c1)S(=O)(=O)N(C1CC1)C2=O | 283 to 285 °C |
| O=C(O)C1COc2ccc(Br)cc21 (stereo not given) | 114 to 116 °C |
| COC(=O)CNC(=O)c1cccc(N)c1 | 103 to 105 °C |
| CCOC(=O)c1cnc2ccc(Cl)cn2c1=O | 137 to 139 °C |
| CNc1n[nH]c(N)c1S(C)(=O)=O | 171 to 173 °C |
| OCc1ncc(-c2ccccc2)o1 | 117 to 119 °C |
| COc1ccccc1C1(C(=O)O)CCC1 | 149 to 151 °C |
| CCN(CC)S(=O)(=O)c1ccc(C(C)=O)cc1 | 81 to 83 °C |
| CC1C=C(C(=O)O)CC1 (stereo not given) | 33 to 35 °C |
| Cn1cnc(S(=O)(=O)NCC(=O)O)c1 | 211 to 213 °C |
| COC(=O)c1ccnc(Cl)c1 | 31 to 33 °C |

| SMILES | melting point |
| --- | --- |
| CNS(=O)(=O)c1cc(OC)c(OC)cc1Br | 156 to 158 °C |
| Nc1cccc(-c2ccc3c(c2)CCO3)n1 | 123 to 125 °C |
| CNc1ccnc(C)n1 | 79 to 81 °C |
| COc1cccc(Nc2ccccc2C(=O)O)c1 | 135 to 137 °C |
| O=C(O)CSc1nncn1C1CC1 | 203 to 205 °C |
| COc1ccc(CBr)cc1C#N | 119 to 121 °C |
| N#Cc1ccc(F)cc1N=C=O | 36 to 38 °C |
| O=Cc1c(-c2ccccc2)n(-c2ccccc2)c2ccccc12 | 246 to 248 °C |
| Cc1ccc(CN2CCOCC2)cc1N | 125 to 127 °C |
| CCc1ccccc1Nc1nnc(S)s1 | 159 to 161 °C |
| O=C(O)C1CCCN(C(=O)c2c[nH]c3ccccc23)C1 (stereo not given) | 231 to 233 °C |
| Cc1ccc(NC(=O)C2CCCNC2)nc1 (stereo not given) | 144 to 146 °C |
| Cc1oc(S(N)(=O)=O)cc1C(=O)O | 209 to 211 °C |
| O=c1[nH]nc2cnccn12 | 229 to 231 °C |
| CS(=O)(=O)N1CCc2cc(C(=O)O)ccc21 | 230 to 232 °C |
| Nc1cccc(COc2ccc3c(c2)OCO3)c1 | 67 to 69 °C |
| COc1ccc(C2C(C(=O)O)CCC(=O)N2C)cc1 (stereo not given) | 213 to 215 °C |
| Nc1ccnc(Cc2ccccc2)n1 | 143 to 145 °C |
| CCOC(=O)Cn1[nH]cc(C#N)c1=N | 121 to 123 °C |
| N#CCc1cc(F)cc2c1OCOC2 | 75 to 77 °C |
| O=C(O)c1noc(-c2ccc(F)cc2)n1 | 129 to 131 °C |
| COc1ccc2nc(CCl)[nH]c2n1 | 151 to 153 °C |
| CCOC(=O)c1nnc(-c2ccccc2)o1 | 69 to 71 °C |
| O=C(O)c1ccc(-n2nnc3ccccc32)cc1 | 308 to 310 °C |
| Cc1[nH]cnc1CO | 233 to 235 °C |

| SMILES | melting point |
| --- | --- |
| CCOc1cc(C(=O)O)ccc1OCC(=O)OC | 129 to 131 °C |
| CN(C)S(=O)(=O)c1ccc2oc(NN)nc2c1 | 218 to 220 °C |
| O=C(O)c1ccc(COc2cccc(Br)c2)o1 | 171 to 173 °C |
| CNS(=O)(=O)c1cc(N)ccc1OC | 169 to 171 °C |
| Cn1cc(C(=O)O)c(C(F)(F)F)n1 | 210 to 212 °C |
| CS(=O)(=O)c1ccc(C(=O)O)o1 | 173 to 175 °C |
| FC(F)Oc1ccccc1-c1noc(CCl)n1 | < 17 °C |
| COc1nc(C)cc(=O)[nH]1 | 199 to 201 °C |
| O=S1(=O)NN=Cc2ccccc21 | 141 to 143 °C |
| CCN1CCCC1CN1CC(C(=O)O)CC1=O (stereo not given) | 166 to 168 °C |
| CCc1nc2ccccc2n1CC(=O)NN | 211 to 213 °C |
| O=C(C1CCCCC1)N1CCNCC1 | 86 to 88 °C |
| COc1cc(C)c(S(=O)(=O)Cl)cc1C | 98 to 100 °C |
| COC(=O)NC1CCC(O)CC1 (stereo not given) | 139 to 141 °C |
| O=C1CCN(S(=O)(=O)c2cccs2)CC1 | 127 to 129 °C |
| CNS(=O)(=O)c1ccccc1CN | 115 to 117 °C |
| Cc1ccc(Cn2nc(C)c(C(=O)O)c2C)cc1 | 134 to 136 °C |
| Nc1cc(S(N)(=O)=O)ccc1O | 199 to 201 °C |
| Cc1c[nH]c(=O)n1-c1cccc([N+](=O)[O-])c1 | 201 to 203 °C |
| CNc1nc(S)nc2ccccc12 | 220 to 222 °C |
| O=S(=O)(Cl)N1CCCC2CCCCC21 (stereo not given) | 34 to 36 °C |
| Cc1cnn(CCC(=O)O)c1 | 94 to 96 °C |
| CC(Cl)C(=O)NC(c1ccccc1)c1ccccc1 (stereo not given) | 130 to 139 °C |
| Cc1ccccc1-n1nnnc1S | 65 to 67 °C |
| O=C(c1ccc(F)cc1)c1ccccc1Cl | 61 to 63 °C |

| SMILES | melting point |
| --- | --- |
| Cc1nc(N)nc2c1CCCC2 | 181 to 185 °C |
| CN1CCC(=O)Nc2cc(Cl)ccc21 | 138 to 140 °C |
| Cc1cc(C(=O)N2CCOCC2)ccc1N | 101 to 103 °C |
| N#Cc1ccc(OC(F)F)c(N)c1 | 86 to 88 °C |
| O=Cc1ccc(-c2ccc(C(F)(F)F)cc2)o1 | 106 to 108 °C |
| Cc1cc(NCc2ccco2)ncn1 | 95 to 97 °C |
| CN(C)c1ccc(C=O)cc1[N+](=O)[O-] | 104 to 106 °C |
| O=C(c1ccc(Cl)cc1)c1ccsc1 | 92 to 94 °C |
| CC(C)(C)Nc1nnc(S)s1 | 164 to 166 °C |
| O=C1COc2ccc(C(=O)CCl)cc2N1 | 228 to 230 °C |
| Nc1cnc(Cl)cc1C(=O)O | 289 to 291 °C |
| NC(=O)Cn1cc(C(=O)O)nn1 | 198 to 200 °C |
| CNC(=O)c1cnc(C)s1 | 172 to 174 °C |
| CCOc1cc(C=O)ccc1OCc1ccc(C(C)(C)C)cc1 | 113 to 115 °C |
| c1nnc(C2CCCNC2)[nH]1 (stereo not given) | 149 to 151 °C |
| Cc1nsc(Nc2ccccc2)c1C#N | 172 to 174 °C |
| Cc1sc2nc(-c3ccc(OC(F)F)cc3)nc(Cl)c2c1C | 140 to 142 °C |
| Clc1nc(-c2ccccc2)c2ccccc2n1 | 111 to 113 °C |
| CC(C1CC1)N(C)C(=O)c1ccc[nH]c1=O (stereo not given) | 187 to 189 °C |
| OCc1cnn(Cc2ccccc2)c1 | 55 to 57 °C |
| O=Cc1ccc(-n2ccnc2)c(F)c1 | 69 to 71 °C |
| Nc1ccc(N2CCCC2=O)c(Cl)c1 | 184 to 186 °C |
| O=C(O)c1cc2ccccc2cc1NS(=O)(=O)c1ccc(F)cc1 | 203 to 205 °C |
| Cc1ccccc1-n1c(S)nc2scc(-c3ccccc3)c2c1=O | 157 to 159 °C |
| Nc1n[nH]c2nc3ccccc3cc12 | 314 to 316 °C |

| SMILES | melting point |
| --- | --- |
| CC(C)(C)Cc1noc2ncc(C(=O)O)cc12 | 231 to 233 °C |
| O=C(O)CNC(=O)c1ccoc1 | 165 to 167 °C |
| Nc1cncnc1-c1ccccc1 | 115 to 117 °C |
| O=C1CCc2cc(Cl)c(S(=O)(=O)Cl)cc2N1 | 207 to 209 °C |
| Cc1c(Cl)cc(C(=O)O)cc1S(=O)(=O)Cl | 167 to 169 °C |
| Cc1ccc(-c2nnn(CC(=O)O)n2)cc1 | 188 to 190 °C |
| c1ccc(Nc2ncccn2)cc1 | 107 to 109 °C |
| Nc1cc(F)c([N+](=O)[O-])cc1C(=O)O | 249 to 251 °C |
| O=C(O)C1CCN(C(=O)C2CC2)CC1 | 211 to 213 °C |
| O=C(O)c1ccccc1SC1CCS(=O)(=O)C1 (stereo not given) | 165 to 167 °C |
| CN(C)S(=O)(=O)c1cccc(C(=O)O)c1 | 146 to 150 °C |
| Nc1nc2nc(-c3cccs3)cc(C(F)(F)F)c2s1 | 243 to 245 °C |
| Nc1ccc(-c2ncco2)cc1 | 104 to 106 °C |
| O=C(O)c1cccc(CN2CCCC2=O)c1 | 145 to 155 °C |
| Cn1c(S)nc2sccc2c1=O | 317 to 319 °C |
| CC(Cl)C(=O)N1c2ccccc2CC1C (stereo not given) | 135 to 137 °C |
| COC(=O)c1c[nH]c(=O)c(C#N)c1 | 264 to 266 °C |
| CC(C)(C)c1ncc(N)cn1 | 119 to 121 °C |
| CS(=O)(=O)CCCS(=O)(=O)Cl | 62 to 64 °C |
| Cc1cccc(C)c1-n1nnnc1S | 146 to 148 °C |
| Cc1nn(-c2ccccc2F)c(C)c1CC(=O)O | 174 to 176 °C |
| CC(N)c1cccc(N2CCCS2(=O)=O)c1 (stereo not given) | 60 to 62 °C |
| Cc1ccc(S(=O)(=O)NCC2CCCO2)cc1C(=O)O (stereo not given) | 160 to 162 °C |
| N#Cc1cccc(NN)c1 | 104 to 106 °C |
| CC(Cl)C(=O)Nc1ccccc1Br (stereo not given) | 75 to 77 °C |

| SMILES | melting point |
| --- | --- |
| CC(C)NC(=O)Cc1ccc(N)cc1 | 153 to 155 °C |
| Cc1cccc(CNC(=O)CCl)c1 | 71 to 73 °C |
| O=[N+]([O-])c1ccc(Cn2ccnc2)cc1 | 39 to 41 °C |
| CC(C)(C)c1ccc(-c2ccc(C=O)o2)cc1 | 70 to 72 °C |
| O=C(NCCCCl)C1CCCC1 | 66 to 68 °C |
| CC(C)(C)OC(=O)N1CC2NCCOC2C1 (stereo not given) | 54 to 56 °C |
| COCCN(CCOC)S(=O)(=O)c1ccc(C(=O)O)cc1 | 147 to 149 °C |
| COC(=O)c1oc2ccccc2c1CBr | 104 to 106 °C |
| COC(=O)c1ccc(S(N)(=O)=O)s1 | 150 to 152 °C |
| O=C(O)C1CCc2ccccc21 (stereo not given) | 54 to 56 °C |
| CC(C)CCOc1ccc(C2(C)NC(=O)NC2=O)cc1 (stereo not given) | 110 to 112 °C |
| Cn1cc([N+](=O)[O-])cn1 | 91 to 93 °C |
| CCOc1ccc(C(=O)N(C)C)cc1N | 127 to 129 °C |
| O=Cc1c(Cl)cccc1OC(F)F | 37 to 39 °C |
| CC(C)C(C(=O)O)N1CCCS1(=O)=O (stereo not given) | 97 to 99 °C |
| CCOc1ccccc1-c1cc(C(=O)O)n[nH]1 | 224 to 226 °C |
| Cn1cnc(-c2ccccc2)c1N | 159 to 161 °C |
| CC(C)(C)OC(=O)N1CCN(c2nc(N)ns2)CC1 | 196 to 198 °C |
| COC(=O)c1ccc(S(=O)(=O)Cl)cn1 | 119 to 121 °C |
| Sc1nc(-c2cccs2)c(-c2cccs2)[nH]1 | 293 to 295 °C |

Source: a melting point compilation (Tetko et al.)
